Measurements from US20080242669A1, “METHODS RELATING TO THE TREATMENT OF FIBROTIC DISORDERS” (UNIVERSITY OF WASHINGTON, priority 2005, published 2008).

Columns and labels:
[1] = tested on: TCF/β-Catenin driven β-Galactosidase expression; assay: TCF/β-catenin driven β-galactosidase reporter in lungs of bleomycin-treated Bat-Gal transgenic mice (X-Gal staining); type: in vivo, mouse; details: intratracheal bleomycin, 5 mg/Kg/day via minipump (subcutaneously)
Experimental: Using this murine model of pulmonary fibrosis in transgenic Bat-Gal mice, ICG-001 (5 mg/Kg/day, administered via minipump) blocked >95% of bleomycin-induced TCF/O-catenin transcription.
These mice have a Beta-Galactosidase transgene driven by a TCF/Catenin driven promoter (i.e. a read out for activated Wnt/catenin signaling). The mice were given intratracheal saline or bleomycin and either treated with ICG-001 (5 mgs/Kg/day subcutaneously) or saline as vehicle control. The mice were sacrificed and the lungs sectioned and stained with X-Gal (blue color) A) intratracheal bleo+saline. B) intracheal bleo+ICG-001 C) saline+saline.
The dose was selected because ICG-001 reduces TCF/β-Catenin driven β-Galactosidase expression >95% at 5 mgs/Kg/day.

[2] = tested on: bleomycin induced fibrosis; assay: Bleomycin induced murine pulmonary fibrosis model (lung sections stained for collagen, body weight, survival); type: in vivo, mouse
Experimental: Murine models of bleomycin induced fibrosis have been developed in order to study fibrotic disease progression.
There is an absence of airway epithelium in lower left compared to upper left (see arrow heads) and extensive collagen deposition (lower left). On the sixth day, either saline (upper right) or ICG-001 (5 mgs/Kg/day) was administered for 10 days after which the mice were sacrificed and sectioned. Of interest is the upper right (saline treatment) showing lack of normal airway epithelialization, extensive collagen deposition and intra-airway hypercellularity (fibroblasts and inflammatory influx).
FIGS. 16 and 17 show RT-PCR data for S100A4 (FIG. 16) and collagen1A2 (FIG. 17), which are increased in the bleomycin treated mice (treated with saline control).
The procedures were performed using the animal model as described in Example 2 (FIG. 15), and the sectioned lungs were stained for collagen.

S100A4 (FSP-1) = assay: Western blot for S100A4 on whole cell lysates of IPF patient fibroblasts; type: cell-based, human; details: IPF patient fibroblasts / ATCC IPF cells, RPMI1640+10% FBS, 2 days
Experimental: (§1) Western blots for S100A4 (also know as FSP-1 or fibroblast specific protein-1) and E-Cadherin were performed on whole cell lysates (FIG. 20).

E-Cadherin = assay: Western blot for E-Cadherin on whole cell lysates of IPF patient fibroblasts; type: cell-based, human; details: RPMI1640+10% FBS, 2 days
Experimental: as §1

Aquaporin 5 = Aquaporin 5 immunostaining of lung tissue in bleomycin mouse model; type: in vivo; details: bleomycin and ICG-001 vs bleomycin alone
Experimental: The aquaporins are water channels expressed in a variety of cell types. Aquaporin 5 is involved in the transportation of water across the apical surface of the alveolar epithelium and the epithelia of the submucosal glands in the upper airway and nasopharynx. (Krane, C. M., P.N.A.S. 98:14192-4, 2001; Yang, F. J. Biol. Chem. 278:32173-80, 2003). Because aquaporin 5 is a marker of Type 1 (differentiated) lung epithelium, its expression was assayed in lung tissue treated with bleomycin (FIG. 22A), bleomycin and ICG-001 (FIG. 22B), and saline (FIG. 22C), using the animal model as described in Example 2 (FIG. 15), and immunostaining with an antibody specific for Aquaporin 5.

[3] = C57/B16 mice, bleomycin 5 days, then 5 mgs/Kg/day for 10 days
[4] = bleomycin and ICG-001 vs bleomycin
[5] = bleomycin model, 5 mg/Kg/day via minipump

SMILES: O=C1[C@H](Cc2ccc(O)cc2)N2C(=O)CCN(C(=O)NCc3ccccc3)[C@H]2CN1Cc1cccc2ccccc12 [ICG-001]
- block of bleomycin-induced TCF/β-catenin transcription (β-Galactosidase expression) [1]: > 95%
- airway appearance in trichrome stained lung sections [2, 3]: essential normal
- body weight [2, 3]: regained normal body weight
- collagen levels in trichrome stained lung sections [2, 3]: normal collagen levels
- survival ([2]; C57/B16 mice, bleomycin 5 days, then 5 mgs/Kg/day for 10 days, untreated controls did not survive): survived
- alveolar fibrosis (lungs stained for collagen) [2, 4]: prevented
- interstitial fibrosis (lungs stained for collagen) [2, 4]: prevented
- disease progression, as judged by mortality, histopathology and endogenous gene expression [2, 5]: not only halted but reversed
- mortality [2, 5]: reduced
- fibrosis over the 25 days of treatment ([2]; bleomycin model, 25 days of treatment): reversed fibrosis
- S100A4 expression (Western blot) (S100A4 (FSP-1)): decreased
- E-cadherin expression (Western blot; also mRNA level) (E-Cadherin): increased
- aquaporin 5 expression in lung tissue (immunostaining) (Aquaporin 5): greatly increased
